We go through 8 compounds from patent publication US6242476A, “Leukotriene A4 hydrolase inhibitors” (Santen Pharmaceutical Co., Ltd., priority 1997, dated 2001).

In the assay the target is T1, LTA4 hydrolase (Cavia porcellus, UniProt P19602).
T1 construct: prepared by extracting from guinea pig lung without purification; from tissue; host or cells: lung of Hartley guinea pig
T1 sequence (P19602 1-611): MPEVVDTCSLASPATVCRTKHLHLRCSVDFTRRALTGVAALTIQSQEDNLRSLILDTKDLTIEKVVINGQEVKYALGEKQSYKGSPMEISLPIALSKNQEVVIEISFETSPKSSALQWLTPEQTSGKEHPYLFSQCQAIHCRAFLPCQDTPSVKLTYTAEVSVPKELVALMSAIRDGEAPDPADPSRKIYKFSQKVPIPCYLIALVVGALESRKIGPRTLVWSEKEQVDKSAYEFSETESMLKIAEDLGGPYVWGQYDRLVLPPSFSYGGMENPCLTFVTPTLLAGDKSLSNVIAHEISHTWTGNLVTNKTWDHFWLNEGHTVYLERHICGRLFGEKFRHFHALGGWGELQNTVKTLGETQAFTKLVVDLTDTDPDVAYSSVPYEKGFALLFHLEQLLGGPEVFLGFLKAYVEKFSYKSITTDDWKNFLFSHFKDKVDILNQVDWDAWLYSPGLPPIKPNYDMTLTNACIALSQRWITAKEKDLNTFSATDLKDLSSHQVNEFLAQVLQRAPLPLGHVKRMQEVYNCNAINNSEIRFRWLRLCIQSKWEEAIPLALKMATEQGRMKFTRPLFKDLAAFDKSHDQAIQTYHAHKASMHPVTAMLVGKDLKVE
Put plainly: Inhibition of LTA4 hydrolase: LTB4 produced from LTA4 by enzyme preparation from guinea pig lung (HPLC). The format is biochemical. As to conditions: guinea pig lung enzyme preparation 0.4-0.6 mg protein; HEPES 50 mM, pH 7.8; LTA4 63 μM; DTT 3 mM; 37° C., one minute; read-out: IC50 (concentration of the compounds required to inhibit LTA4 hydrolase activity by 50%). On the procedure:
Izumi et al. had reported a method of measuring LTA4 hydrolase activity by measuring an amount of LTB4 produced by an enzymatic reaction using LTA4 as a substrate (Biochem. Biophys. Res. Commun., 135, 139-145 (1986)). Effects of the present compounds on LTA4 hydrolase were examined according to the method described in the literature.
An enzyme preparation used in this pharmacological test was prepared by extracting from guinea pig lung without purification according to the method of Izumi et al. (Biochem. Biophys. Res. Commun., 135, 139-145 (1986)) and the method of Evans et al. (Biochem. Biophys. Acta, 840, 43-50 (1985)). The experimental method is as follows:
Lungs were excised from a Hartley guinea pig (body weight: 330 g). The lungs were homogenized in phosphoric acid buffer (50 mM, pH 7.4, containing 1 mM ethylenediaminetetraacetic acid (EDTA) and 1 mM dithiothreitol (DTT) having weight three times that of the lungs under ice-cooling. The homogenate was centrifuged at low speed (800×g) for 20 minutes, centrifuged at high speed (10,000×g) for 20 minutes and ultracentrifuged (100,000×g) for 60 minutes to give a supernatant. The supernatant was brought to 40% saturation by adding a saturated aqueous ammonium sulfate solution (pH 7.0-7.2, containing 1 mM DTT) dropwise under ice-cooling and centrifuged at high speed (10,000×g) for 20 minutes. The resulting supernatant was brought to 70% saturation by adding a saturated aqueous ammonium sulfate solution (pH 7.0-7.2, containing 1 mM DTT) dropwise and centrifuged at high speed (10,000×g) for 20 minutes. The obtained pellet was dissolved in 2 ml of Tris-acetic acid buffer (20 mM, pH 7.8, containing 1 mM DTT) and dialyzed in 2 liters of the solution to give the enzyme preparation.
LTA4 used, which is the substrate, was prepared by hydrolyzing LTA4 methyl ester and dissolved in ethanol.
In order to examine effects of the test compounds on the enzyme preparation, reactions were performed under the following condition using mixed solutions consisting of the composition shown in Table 1. […]
HEPES buffer 50 mM, pH 7.8
Enzyme preparation 0.4-0.6 mg protein
DTT aqueous solution 3 mM
Test compounds 10^-8 -10^-3 M
The above-mentioned solution (50 μl) was incubated at 37° C. for one minute. To the reaction mixture was added 100 μl of a mixed liquid of acetonitrile-ethanol-acetic acid (150:50:3, volume ratio) under ice-cooling. The mixture was allowed to stand at -20° C. for 30 minutes and centrifuged at high speed (10,000×g) for five minutes to give a supernatant. An amount of LTB4 produced in the supernatant was measured by high-speed liquid chromatography.
The degree of the inhibitory effect of each test compound on LTA4 hydrolase is expressed by the inhibition rate calculated by the following equation. [formula]
A: amount of LTB4 formed in the absence of the test compound
B: amount of LTB4 formed in the presence of the test compound
The results are represented in concentration of the compounds required to inhibit LTA4 hydrolase activity by 50%, i.e., IC50.

As for `Cc1ccccc1CS[C@H]1C[C@@H](C(=O)O)N(C(=O)[C@H](C)CS)C1` [Compound a, 1-[(2S)-3-mercapto-2-methylpropionyl]-(4S)-4-(2-methylbenzylthio)-L-proline], the IC50 is 840 nM.
As for `CC(C)c1ccc(CS[C@H]2C[C@@H](C(=O)O)N(C(=O)[C@H](C)CS)C2)cc1` [Compound b, (4S)-4-(4-isopropylbenzylthio)-1-[(2S)-3-mercapto-2-methylpropionyl]-L-proline], the IC50 was determined as 52 nM.
For the compound `CC(C)c1ccc(CCS[C@H]2C[C@@H](C(=O)O)N(C(=O)[C@H](C)CS)C2)cc1` [Compound c, (4S)-4-(4-isopropylphenyethylthio)-1-[(2S)-3-mercapto-2-methylpropionyl]-L-proline], the IC50 turned out to be 790 nM.
As for `CC(C)c1ccc(CS[C@@H]2C[C@@H](C(=O)O)N(C(=O)[C@H](C)CS)C2)cc1` [Compound d, (4R)-4-(4-isopropylbenzylthio)-1-[(2S)-3-mercapto-2-methylpropionyl]-L-proline], the figure is 290 nM; as for `CC(C)c1ccc(CO[C@@H]2C[C@@H](C(=O)O)N(C(=O)[C@H](C)CS)C2)cc1` [Compound e, (4R)-4-(4-isopropylbenzyloxy)-1-[(2S)-3-mercapto-2-methylpropionyl]-L-proline], 800 nM.
The figure for `CCCCc1ccc(CS[C@H]2C[C@@H](C(=O)O)N(C(=O)[C@H](C)CS)C2)cc1` [Compound f, (4S)-4-(4-butylbenzylthio)-1-[(2S)-3-mercapto-2-methylpropionyl]-L-proline] is 31 nM.
As for `CSc1ccc(CS[C@H]2C[C@@H](C(=O)O)N(C(=O)[C@H](C)CS)C2)cc1` [Compound g, 1-[(2S)-3-mercapto-2-methylpropionyl]-(4S)-4-[4-(methylthio)benzylthio]-L-proline], the figure is 120 nM; as for `C[C@H](CS)C(=O)N1C[C@@H](SCc2ccc(C3CCCCC3)cc2)C[C@H]1C(=O)O` [Compound h, (4S)-4-(4-cyclohexylbenzylthio)-1-[(2S)-3-mercapto-2-methylpropionyl]-L-proline], 34 nM.
